Holding throughout (test): steady-state tryptophan fluorescence quenching titration in PBS
Holding throughout (format): binding

Assay [1] concerns the target T1, bovine serum albumin (BSA) (Bos taurus, UniProt P02769).
Assay [2] addresses hen egg-white lysozyme (HEWL) (Gallus gallus, UniProt P00698).
The target in assay [3] is T1, bovine serum albumin (BSA). The source holds these as a separate data set.

Our source for the Kd values is paper PMC9490042 (iScience, 2022).

Counter-ions that a name gives are not always drawn. Like-named read-outs stand apart in the source and are kept apart here.

A word on the Kd: it is the concentration at which binding is half-saturated.

T1 sequence (P02769 25-607): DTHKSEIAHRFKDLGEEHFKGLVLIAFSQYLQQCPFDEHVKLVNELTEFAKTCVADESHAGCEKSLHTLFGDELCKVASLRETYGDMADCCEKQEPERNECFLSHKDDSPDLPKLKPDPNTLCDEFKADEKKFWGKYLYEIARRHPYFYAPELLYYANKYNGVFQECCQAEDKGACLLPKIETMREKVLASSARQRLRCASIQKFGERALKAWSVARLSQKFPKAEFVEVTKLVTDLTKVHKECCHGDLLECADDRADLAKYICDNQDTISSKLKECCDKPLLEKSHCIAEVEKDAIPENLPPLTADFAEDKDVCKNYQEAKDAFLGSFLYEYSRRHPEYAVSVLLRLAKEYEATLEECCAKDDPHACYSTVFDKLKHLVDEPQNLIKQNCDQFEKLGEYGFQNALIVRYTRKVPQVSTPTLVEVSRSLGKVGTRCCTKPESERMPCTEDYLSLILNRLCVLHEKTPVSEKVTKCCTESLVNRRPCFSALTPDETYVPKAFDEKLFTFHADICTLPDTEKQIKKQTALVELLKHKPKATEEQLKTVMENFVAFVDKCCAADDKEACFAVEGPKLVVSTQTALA
Sequence of hen egg-white lysozyme (HEWL) (P00698 19-147): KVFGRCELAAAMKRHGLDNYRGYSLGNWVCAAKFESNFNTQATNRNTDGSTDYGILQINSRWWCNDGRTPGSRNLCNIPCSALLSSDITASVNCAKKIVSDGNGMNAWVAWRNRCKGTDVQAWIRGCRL

For `COc1cccc2c1C(=O)c1c(O)c3c(c(O)c1C2=O)C[C@@](O)(C(=O)CO)C[C@@H]3O[C@H]1C[C@H](N)[C@H](O)[C@H](C)O1` [Doxorubicin], the dissociation constant Kd in assay [1] came out at 16.5 ± 2.5 µM.

`CCN(CC)CCCC(C)Nc1c2ccc(Cl)cc2nc2ccc(OC)cc12` (stereo not shown) [Quinacrine dihydrochloride] came in with a Kd in assay [1] of 4.6 ± 1.1 µM. For the compound `Cn1cc(C2=C(c3ccc(Cl)cc3Cl)C(=O)NC2=O)c2ccccc21` [SB216763], the Kd in assay [2] is 1.7 ± 0.7 µM; in assay [3] it was 5.2 ± 1.2 µM.
